The results in this text go back to ChEMBL document CHEMBL1145693, “Stereochemistry-dependent cytotoxicity of some artemisinin derivatives” (J Nat Prod, 1997).

pIC50: −log10 of the molar value. The source made the active and inactive calls. The calls are words filed in the database; no cut-off is given here. Where only a bound is given, the exact number is not on record here.

Usually pIC50 stands for the negative decadic logarithm of the IC50, by convention in mol/L.

Holding throughout (format): functional, cell-based
A short description of assay [1]: Cell cycle arrest in mouse EN2 cells assessed as accumulation at G1 phase at 0.4 uM after 12 hrs by flow cytometry relative to control. Background: A flow cytometer gives signals particle by particle.
Assay [2] is described as follows: Cell cycle arrest in mouse EN2 cells assessed as accumulation at G1 phase at 0.4 uM after 24 to 48 hrs by flow cytometry relative to control.
For assay [3], the system named is EN2. The assay can be described thus: Cytotoxicity against mouse EN2 cells after 10 mins by MTT assay. Background: Formazan colour is commonly taken as a measure of viable cells.
Assay [4] is described as follows: Cytotoxicity against mouse EN2 cells after 72 hrs by MTT assay. Particulars: EN2, 72 h.
Assay [5] in a line: Cytotoxicity against mouse EN2 cells after 2 hrs of incubation measured after 6 days by clonogenic assay.
The nature of assay [6]: Cytotoxicity against mouse EN2 cells after 24 hrs by MTT assay. The conditions noted are these: EN2, 24 h.
Assay [7] can be described thus: Cytotoxicity against mouse EN2 cells after 2 hrs of incubation measured after 2 days by MTT assay.
A short description of assay [8]: Cytotoxicity against mouse EN2 cells after 2 hrs of incubation measured after 24 hrs by cell-count assay.
The nature of assay [9]: Cytotoxicity against mouse EN2 cells at 50 uM after 24 hrs by clonogenic assay. Particulars: EN2, 24 h.
A short description of assay [10]: Cell cycle arrest in mouse EN2 cells assessed as accumulation at G1 phase after 24 hrs by flow cytometry relative to control.
Assay [11] concerns EN2. Description: Cytotoxicity against mouse EN2 cells after 15 mins by MTT assay.
A short description of assay [12]: Cytotoxicity against mouse EN2 cells after 24 hrs by cell-count assay. Particulars: EN2, 24 h.
The nature of assay [13]: Cell cycle arrest in mouse EN2 cells assessed as accumulation at G1 phase after 24 hrs by flow cytometry. The conditions noted are these: EN2, 24 h.
Assay [14] concerns EN2. Description: Cytotoxicity against mouse EN2 cells after 5 mins by MTT assay.
Assay [15] in a line: Cell cycle arrest in mouse EN2 cells assessed as accumulation at G1 phase after 2 hrs of incubation measured after 24 hrs relative to control.
Assay [16] in a line: Cytotoxicity against mouse EN2 cells after 24 hrs by clonogenic assay. Particulars: EN2, 24 h.
Assay [17] is described as follows: Cell cycle arrest in mouse EN2 cells assessed as accumulation at S phase after 48 hrs by flow cytometry relative to control.
Assay [18] can be described thus: Cell cycle arrest in mouse EN2 cells assessed as accumulation at S phase after 24 hrs by flow cytometry relative to control.

Regarding `C[C@H]1[C@H](O[C@H]2O[C@@H]3O[C@]4(C)CC[C@H]5[C@H](C)CC[C@@H]([C@H]2C)[C@@]35OO4)O[C@@H]2O[C@]3(C)CC[C@H]4[C@H](C)CC[C@@H]1[C@@]24OO3`, the outcome (in assay [1]; with EN2 [3]; in assay [10]; in the assay on EN2 [11]; in the assay on EN2 [14]) was Active. The result in [2] was inactive. Also, the pIC50 was 6.96 in [4]; 4.25 in [5]; 6.46 in assay [6]; 5.44 in [7]; 5.03 in assay [8]; 6.00 in [9]. The pIC50 in assay [12] was 6.27; in assay [13], 7.30; in [15], 6.00. Also, the Activity result in assay [15] was “Dose-dependent effect”.
On to `C[C@@H]1CC[C@@H]2[C@]34OO[C@](C)(CC[C@@H]13)O[C@H]4OC(=O)[C@@]21CO1`, for which, in [4], the negative-log IC50 (pIC50) was 4.90.
The same measure, in the same setting: under `C[C@H]1[C@H](O[C@H]2O[C@@H]3O[C@]4(C)CC[C@H]5[C@H](C)CC[C@@H]([C@H]2C)[C@@]35O4)O[C@@H]2O[C@]3(C)CC[C@H]4[C@H](C)CC[C@@H]1[C@@]24O3` [listing 1 of 2 here] stands 4.00.
On the same count and under the same terms, to `C[C@@H]1CC[C@H]2[C@@H](C)C(=O)O[C@@H]3O[C@@]4(C)CC[C@@H]1[C@]32O4` [DEOXYARTEMISININ] belongs 3.95.
`C[C@H]1[C@H](O[C@H]2O[C@@H]3O[C@]4(C)CC[C@H]5[C@H](C)CC[C@@H]([C@H]2C)[C@@]35O4)O[C@@H]2O[C@]3(C)CC[C@H]4[C@H](C)CC[C@@H]1[C@@]24O3` [listing 2 of 2 here] gave a negative-log IC50 (pIC50) in assay [4] of 5.05.
Same read-out and setting: to `C[C@@H]1CC[C@@H]2[C@]34OO[C@](C)(CC[C@@H]13)O[C@H]4OC(=O)[C@]21CO1` belongs less than 4.00.
For the compound `C[C@H]1[C@@H](O[C@H]2O[C@@H]3O[C@]4(C)CC[C@H]5[C@H](C)CC[C@@H]([C@H]2C)[C@@]35OO4)O[C@@H]2O[C@]3(C)CC[C@H]4[C@H](C)CC[C@@H]1[C@@]24OO3`, the outcome (with EN2 [3]; in [10]; in the assay with EN2 [11]; in the assay with EN2 [14]) was Active. In addition, the pIC50 is 5.70 in assay [4]; less than 4.30 in assay [16]; 5.14 in assay [6]; 5.05 in assay [12]; 6.00 in assay [13].
For `C[C@@H]1CC[C@H]2[C@@H](C)C(=O)O[C@@H]3O[C@@]4(C)CC[C@@H]1[C@]32OO4` [ARTEMISININ], the outcome in [17] and in assay [10] was inactive. In addition, the Activity result in assay [18] is “Dose-dependent effect”. Further, the negative-log IC50 (pIC50) was 6.01 in [4]; less than 4.30 in [16]; 4.94 in assay [6]; 4.52 in assay [12]; 6.00 in assay [13].
